Measured values from US20250059188A1, “ARYLSULPHONAMIDE COMPOUNDS” (Anaxis Pharma Pty Ltd, priority 2021, published 2025).

Legend:
human MLKL (full length) = human MLKL (full length) (Homo sapiens (Human), UniProt Q8NB16); assay: KINOMEscan binding assay, human MLKL (full length); conditions: equilibrium dissociation constant
Outline: (§1)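 Kd values come from dose-response fits to the Hill equation (Hill slope −1, Levenberg–Marquardt least squares). Compound competed with bead-bound ligand for tagged kinase, and remaining kinase was measured by qPCR after elution. Dilution series: 11 points, 3-fold, 1% DMSO final, top 30,000 nM in most runs.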

human RIPK1 = human RIPK1 (Homo sapiens (Human), UniProt Q13546); assay: KINOMEscan binding assay, human RIPK1; conditions: equilibrium dissociation constant
Outline: as §1

human RIPK3 = human RIPK3 (Homo sapiens (Human), UniProt Q9Y572); assay: KINOMEscan binding assay, human RIPK3; conditions: equilibrium dissociation constant
Outline: as §1

[1] = tested on: U937 human histiocytic leukemia cell line; assay: Inhibition of TSQ induced necroptosis in U937 cells (CellTitre-Glo); conditions: Homo sapiens, U-937, TSQ cocktail (TNF, Smac mimetic, Q-VD-OPh), 48 hours, read-out: Inhibition of TSQ-induced necroptosis (IC50 cell-based assay)
Outline: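 Necroptosis was induced with TNF-Fc (100 ng/ml), Smac mimetic (500 nM) and Q-VD-OPh (10 μM) in 20000 U937 cells/well exposed to a 10-point, 3-fold compound series (top 36 μM, 0.3% DMSO). ATP luminescence read after 48 h; 4-parameter fit gave IC50. Parallel TSQ-free wells assessed compound toxicity.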

U937 cells = assay: Counter screen: U937 cell viability without TSQ cocktail (off-target effect); set-up: species or system human; conditions: Homo sapiens, U-937, compound without TSQ cocktail, read-out: Off-target effect (IC50 cell-based assay)
Outline: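 Off-target viability counter screen: compounds titrated 36 μM down 1:3 over 10 points (0.3% DMSO) on 20,000 U937 cells/well, no TNF/Smac mimetic/Q-VD-OPh added, 48 h incubation. ATP-based CellTiter-Glo luminescence, four-parameter logistic IC50.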

Sequence of human RIPK1 (Q13546 whole entry): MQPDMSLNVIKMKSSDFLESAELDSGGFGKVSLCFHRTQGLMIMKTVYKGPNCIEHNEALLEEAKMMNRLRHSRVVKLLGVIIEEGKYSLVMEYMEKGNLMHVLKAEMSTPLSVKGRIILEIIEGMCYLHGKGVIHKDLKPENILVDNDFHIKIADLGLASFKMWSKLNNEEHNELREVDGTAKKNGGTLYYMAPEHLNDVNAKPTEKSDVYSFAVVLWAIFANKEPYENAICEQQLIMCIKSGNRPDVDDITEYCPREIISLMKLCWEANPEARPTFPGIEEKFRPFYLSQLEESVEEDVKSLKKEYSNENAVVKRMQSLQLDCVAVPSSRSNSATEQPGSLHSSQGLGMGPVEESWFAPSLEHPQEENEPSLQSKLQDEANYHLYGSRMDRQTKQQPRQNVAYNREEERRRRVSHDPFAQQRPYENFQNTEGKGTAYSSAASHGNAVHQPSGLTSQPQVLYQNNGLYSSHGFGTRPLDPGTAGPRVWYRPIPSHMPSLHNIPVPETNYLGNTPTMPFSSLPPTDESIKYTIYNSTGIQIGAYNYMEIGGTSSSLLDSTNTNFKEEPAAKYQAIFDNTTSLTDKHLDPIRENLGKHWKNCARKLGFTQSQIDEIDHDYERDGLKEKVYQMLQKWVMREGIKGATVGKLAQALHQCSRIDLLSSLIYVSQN
Sequence of human MLKL (full length) (Q8NB16 whole entry): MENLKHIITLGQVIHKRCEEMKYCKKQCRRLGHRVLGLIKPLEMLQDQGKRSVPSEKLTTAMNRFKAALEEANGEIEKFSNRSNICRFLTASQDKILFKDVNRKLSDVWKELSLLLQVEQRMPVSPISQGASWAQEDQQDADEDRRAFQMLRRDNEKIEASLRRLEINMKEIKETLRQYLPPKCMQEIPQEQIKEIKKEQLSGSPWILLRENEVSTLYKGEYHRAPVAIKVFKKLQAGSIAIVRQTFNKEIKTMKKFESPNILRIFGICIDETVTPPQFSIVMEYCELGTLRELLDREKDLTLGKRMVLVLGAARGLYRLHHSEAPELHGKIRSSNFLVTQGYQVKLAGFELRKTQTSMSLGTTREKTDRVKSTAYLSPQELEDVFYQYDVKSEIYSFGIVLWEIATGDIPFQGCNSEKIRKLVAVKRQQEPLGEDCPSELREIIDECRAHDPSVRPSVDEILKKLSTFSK
Sequence of human RIPK3 (Q9Y572 whole entry): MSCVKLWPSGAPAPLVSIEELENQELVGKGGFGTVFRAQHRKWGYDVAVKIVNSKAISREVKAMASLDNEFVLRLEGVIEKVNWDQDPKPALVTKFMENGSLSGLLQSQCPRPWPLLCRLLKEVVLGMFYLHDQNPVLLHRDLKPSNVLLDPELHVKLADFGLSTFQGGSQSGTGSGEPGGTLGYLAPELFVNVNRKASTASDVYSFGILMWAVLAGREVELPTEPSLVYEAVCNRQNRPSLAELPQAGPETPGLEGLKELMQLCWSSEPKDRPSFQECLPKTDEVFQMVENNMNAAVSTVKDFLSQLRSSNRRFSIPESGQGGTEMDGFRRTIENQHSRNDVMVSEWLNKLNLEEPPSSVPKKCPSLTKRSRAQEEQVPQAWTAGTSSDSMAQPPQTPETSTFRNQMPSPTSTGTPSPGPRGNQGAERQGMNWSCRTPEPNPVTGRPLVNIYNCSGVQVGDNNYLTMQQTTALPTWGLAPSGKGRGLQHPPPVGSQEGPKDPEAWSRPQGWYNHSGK

Structure (SMILES) | Kd (human MLKL (full length)) [nM] | Kd (human RIPK1) [nM] | Kd (human RIPK3) [nM] | IC50 [1] [nM] | IC50 (U937 cells) [nM]
CC(C)N(C)CC(C)n1cc(-c2cnc(N)c3c(-c4ccc(NS(=O)(=O)C(F)F)c(O[C@@H](C)c5ccc(F)cc5)c4)nn(C)c23)cn1 (stereo partly drawn) [Compound 101, N-(4-(4-amino-7-(1-(1-(isopropyl(methyl)amino)propan-2-yl)-1H-pyrazol-4-yl)-1-methyl-1H-pyrazolo[4,3-c]pyridin-3-yl)-2-((S)-1-(4-fluorophenyl)ethoxy)phenyl)-1,1-difluoromethanesulfonamide] | < 1 | > 10000 | > 10000 | < 10 | > 10000
C[C@H](Oc1cc(-c2nn(C)c3c(-c4ccnc(C(C)(C)C)c4)cnc(N)c23)ccc1NS(=O)(=O)C(F)F)c1ccc(F)cc1 [Compound 48, (S)-N-(4-(4-amino-7-(2-(tert-butyl)pyridin-4-yl)-1-methyl-1H-pyrazolo[4,3-c]pyridin-3-yl)-2-(1-(4-fluorophenyl)ethoxy)phenyl)-1,1-difluoromethanesulfonamide] | 1 to 100 | > 10000 | > 10000 | 1000 to 10000 | > 10000
C[C@H](Oc1cc(-c2cnn3c(-c4cnn(C5CCOCC5)c4)cnc(N)c23)ccc1NS(=O)(=O)C(F)F)c1ccc(F)cc1 [Compound 36, (S)-N-(4-(4-amino-7-(1-(tetrahydro-2H-pyran-4-yl)-1H-pyrazol-4-yl)pyrazolo[1,5-a]pyrazin-3-yl)-2-(1-(4-fluorophenyl)ethoxy)phenyl)-1,1-difluoromethanesulfonamide] | < 1 | > 10000 | > 10000 | < 10 | > 10000
C[C@H](Oc1cc(-c2nn(C)c3c(-c4cnn(CCN(C)C)c4)cnc(N)c23)ccc1NS(=O)(=O)C(F)F)c1ccc(F)cc1 [Compound 100, (S)-N-(4-(4-amino-7-(1-(2-(dimethylamino)ethyl)-1H-pyrazol-4-yl)-1-methyl-1H-pyrazolo[4,3-c]pyridin-3-yl)-2-(1-(4-fluorophenyl)ethoxy)phenyl)-1,1-difluoromethanesulfonamide] | < 1 | > 10000 | > 10000 | < 10 | > 10000
C[C@H](Oc1cc(-c2cnn3c(-c4ccncc4)cnc(N)c23)ccc1NS(=O)(=O)C(F)F)c1ccc(F)cc1 [Compound 39, (S)-N-(4-(4-amino-7-(pyridin-4-yl)pyrazolo[1,5-a]pyrazin-3-yl)-2-(1-(4-fluorophenyl)ethoxy)phenyl)-1,1-difluoromethanesulfonamide] | < 1 | > 10000 | > 10000 | 10 to 1000 | > 10000
CC(C)n1nc(-c2ccc(NS(=O)(=O)C(F)F)c(O[C@@H](C)c3ccc(F)cc3)c2)c2c(N)ncc(-c3cnn(C)c3)c21 [Compound 52, (S)-N-(4-(4-amino-1-isopropyl-7-(1-methyl-1H-pyrazol-4-yl)-1H-pyrazolo[4,3-c]pyridin-3-yl)-2-(1-(4-fluorophenyl)ethoxy)phenyl)-1,1-difluoromethanesulfonamide] | 1 to 100 | > 10000 | > 10000 | 10 to 1000 | > 10000
C[C@H](Oc1cc(-c2nn(C)c3c(-c4cnc(N(C)C)nc4)cnc(N)c23)ccc1NS(=O)(=O)C(F)F)c1ccc(F)cc1 [Compound 106, (S)-N-(4-(4-amino-7-(2-(dimethylamino)pyrimidin-5-yl)-1-methyl-1H-pyrazolo[4,3-c]pyridin-3-yl)-2-(1-(4-fluorophenyl)ethoxy)phenyl)-1,1-difluoromethanesulfonamide] | 1 to 100 | > 10000 | > 10000 | 10 to 1000 | > 10000

Second part, led by results:

Kd (human MLKL (full length)) [nM] | Kd (human RIPK1) [nM] | Kd (human RIPK3) [nM] | Structure (SMILES) | IC50 [1] [nM] | IC50 (U937 cells) [nM]
1 to 100 | > 10000 | > 10000 | C[C@H](Oc1cc(-c2nn(C)c3c(-c4ccn(C)c4)cnc(N)c23)ccc1NS(=O)(=O)C(F)F)c1ccc(F)cc1 [Compound 126, (S)-N-(4-(4-amino-1-methyl-7-(1-methyl-1H-pyrrol-3-yl)-1H-pyrazolo[4,3-c]pyridin-3-yl)-2-(1-(4-fluorophenyl)ethoxy)phenyl)-1,1-difluoromethanesulfonamide] | 10 to 1000 | > 10000
1 to 100 | > 10000 | > 10000 | C[C@H](Oc1cc(-c2nn(C)c3c(C4=CCOCC4)cnc(N)c23)ccc1NS(=O)(=O)C(F)F)c1ccc(F)cc1 [Compound 43, (S)-N-(4-(4-amino-7-(3,6-dihydro-2H-pyran-4-yl)-1-methyl-1H-pyrazolo[4,3-c]pyridin-3-yl)-2-(1-(4-fluorophenyl)ethoxy)phenyl)-1,1-difluoromethanesulfonamide] | 10 to 1000 | > 10000
< 1 | > 10000 | > 10000 | C[C@H](Oc1cc(-c2nn(C)c3c(-c4ccc(N5CCN(C)CC5)nc4)cnc(N)c23)ccc1NS(=O)(=O)C(F)F)c1ccc(F)cc1 [Compound 107, (S)-N-(4-(4-amino-1-methyl-7-(6-(4-methylpiperazin-1-yl)pyridin-3-yl)-1H-pyrazolo[4,3-c]pyridin-3-yl)-2-(1-(4-fluorophenyl)ethoxy)phenyl)-1,1-difluoromethanesulfonamide] | 10 to 1000 | > 10000
< 1 | > 10000 | > 10000 | C[C@H](Oc1cc(-c2nn(C)c3c(-c4cnn(C5CCNCC5)c4)cnc(N)c23)ccc1NS(=O)(=O)C(F)F)c1ccc(F)cc1 [Compound 59, (S)-N-(4-(4-amino-1-methyl-7-(1-(piperidin-4-yl)-1H-pyrazol-4-yl)-1H-pyrazolo[4,3-c]pyridin-3-yl)-2-(1-(4-fluorophenyl)ethoxy)phenyl)-1,1-difluoromethanesulfonamide] | 10 to 1000 | > 10000
< 1 | > 10000 | > 10000 | C[C@H](Oc1cc(-c2nn(C)c3c(-c4cnn(C5CC6(CNC6)C5)c4)cnc(N)c23)ccc1NS(=O)(=O)C(F)F)c1ccc(F)cc1 [Compound 78, (S)-N-(4-(7-(1-(2-azaspiro[3.3]heptan-6-yl)-1H-pyrazol-4-yl)-4-amino-1-methyl-1H-pyrazolo[4,3-c]pyridin-3-yl)-2-(1-(4-fluorophenyl)ethoxy)phenyl)-1,1-difluoromethanesulfonamide] | 10 to 1000 | > 10000
< 1 | > 10000 | > 10000 | C[C@H](Oc1cc(-c2nn(C)c3c(-c4cnn(C5CCN(C)C5)c4)cnc(N)c23)ccc1NS(=O)(=O)C(F)F)c1ccc(F)cc1 (stereo partly drawn) [Compound 93, N-(4-(4-amino-1-methyl-7-(1-(1-methylpyrrolidin-3-yl)-1H-pyrazol-4-yl)-1H-pyrazolo[4,3-c]pyridin-3-yl)-2-((S)-1-(4-fluorophenyl)ethoxy)phenyl)-1,1-difluoromethanesulfonamide] | 10 to 1000 | > 10000
< 1 | > 10000 | > 10000 | Cc1cc(-c2cnc(N)c3c(-c4ccc(NS(=O)(=O)C(F)F)c(O[C@@H](C)c5ccc(F)cc5)c4)nn(C)c23)ccn1 [Compound 24, (S)-N-(4-(4-amino-1-methyl-7-(2-methylpyridin-4-yl)-1H-pyrazolo[4,3-c]pyridin-3-yl)-2-(1-(4-fluorophenyl)ethoxy)phenyl)-1,1-difluoromethanesulfonamide] | 10 to 1000 | > 10000
< 1 | > 10000 | > 10000 | C[C@H](Oc1cc(-c2nn(C)c3c(-c4cnn(C5CN(C)C5)c4)cnc(N)c23)ccc1NS(=O)(=O)C(F)F)c1ccc(F)cc1 [Compound 92, (S)-N-(4-(4-amino-1-methyl-7-(1-(1-methylazetidin-3-yl)-1H-pyrazol-4-yl)-1H-pyrazolo[4,3-c]pyridin-3-yl)-2-(1-(4-fluorophenyl)ethoxy)phenyl)-1,1-difluoromethanesulfonamide] | 10 to 1000 | > 10000
< 1 | > 10000 | > 10000 | C[C@H](Oc1cc(-c2nn(C)c3c(-c4cnn(C5(CN)CC5)c4)cnc(N)c23)ccc1NS(=O)(=O)C(F)F)c1ccc(F)cc1 [Compound 89, (S)—N-(4-(4-amino-7-(1-(1-(aminomethyl)cyclopropyl)-1H-pyrazol-4-yl)-1-methyl-1H-pyrazolo[4,3-c]pyridin-3-yl)-2-(1-(4-fluorophenyl)ethoxy)phenyl)-1,1-difluoromethanesulfonamide] | 10 to 1000 | > 10000
1 to 100 | > 10000 | > 10000 | C[C@H](Oc1cc(-c2nn(C)c3c(C#CC4CCN(CC(F)(F)F)CC4)cnc(N)c23)ccc1NS(=O)(=O)C(F)F)c1ccc(F)cc1 [Compound 128, (S)-N-(4-(4-amino-1-methyl-7-((1-(2,2,2-trifluoroethyl)piperidin-4-yl)ethynyl)-1H-pyrazolo[4,3-c]pyridin-3-yl)-2-(1-(4-fluorophenyl)ethoxy)phenyl)-1,1-difluoromethanesulfonamide] | 10 to 1000 | > 10000
